From the NIST ThermoML archive (doi:10.1016/j.fluid.2017.03.010) come the findings set out here.

Molecules are shown by their SMILES. ± gives the expanded uncertainty stated by the source.

The conditions of the data set: Liquid.

On to `CCO` [ethanol], for which, for the setting “othmer still”, the Normal boiling temperature was found to be 78.30 ± 1.6 °C. `O` [water]: the Normal boiling temperature (Othmer still) was found to be 100.00 ± 1.6 °C.
